Legend:
Conditions in all cases: exposure time 48 h
[1] = test system: Caenorhabditis elegans N2; assay: AC50 for larval growth inhibition (Hill fit); higher = less potent
In short: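 After 48 h at 20°C in K-medium with killed OP50, 1% DMSO and 0.5–200 µM chemical, synchronised C. elegans N2 L1 larvae (50 per well, 96-well plates) were sized individually as extinction on a COPAS Biosort. These values were log-transformed and averaged per well, and wells with fewer than 10 worms were excluded. The AC50 was derived from a constrained Hill fit by weighted genetic-algorithm regression, and out-of-range values are censored.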

[2] = test system: Caenorhabditis elegans N2; assay: mean nematode size ln(EXT) after 48 h, plate-adjusted (DMSO control set to 6) (ln(EXT), control-adjusted); higher = larger nematodes / less growth inhibition
In short: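 Worms were measured individually for extinction on the Biosort after 48 h at 20°C. They began as synchronised C. elegans N2 L1 larvae in K-medium with killed OP50, 1% DMSO and 0.5–200 µM chemical. Once debris had been removed by a growth model, values were natural-logged and averaged per well to give mean size. The plate adjustment subtracted the vehicle control mean and added 6.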

[3] = test system: Caenorhabditis elegans N2; assay: lowest effective concentration for larval growth inhibition (size below effect threshold); higher = less potent
In short: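 Log-transformed well means of per-worm extinction, read as size on a Biosort, came from 50 C. elegans N2 L1 larvae per 96-well grown 48 h at 20°C in K-medium with killed bacteria, 1% DMSO and 0.5 to 200 µM chemical. The lowest effective concentration is the first dose at which the plate-adjusted mean size is below the threshold and stays below it at every higher dose. The threshold is 5.665.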

SMILES | AC50 for larval growth inhibition [1] [µM] | mean nematode size ln(EXT) (ln) ([2]; 0.5 µM) | mean nematode size ln(EXT) (ln) ([2]; 1 µM) | mean nematode size ln(EXT) (ln) ([2]; 5 µM) | mean nematode size ln(EXT) (ln) ([2]; 10 µM) | mean nematode size ln(EXT) (ln) ([2]; 50 µM) | mean nematode size ln(EXT) (ln) ([2]; 100 µM) | mean nematode size ln(EXT) (ln) ([2]; 200 µM) | lowest effective concentration [3] [µM]
CC(C)(c1cc(Br)c(O)c(Br)c1)c1cc(Br)c(O)c(Br)c1 [3,3',5,5'-Tetrabromobisphenol A] | 28.3 | 5.84 | 5.92 | 5.93 | 5.56 | 4.75 | 4.36 | 4.27 | 10
CCCCCCc1ccc(O)cc1O [4-Hexylresorcinol] | 181 | 6 | 5.89 | 5.83 | 5.84 | 5.6 | 5.03 | 4.47 | 50
CC(=O)c1ccc2c(c1)[C@H](NC(=O)c1ccc(F)cc1)[C@@H](O)C(C)(C)O2 [Carabersat] | 127 | 5.79 | 5.88 | 5.9 | 5.89 | 5.99 | 5.93 | 5.65 | 200
COCCOC[C@H](CC1(C(=O)N[C@H]2CC[C@@H](C(=O)O)CC2)CCCC1)C(=O)Oc1ccc2c(c1)CCC2 [Candoxatril] | > 200 | 5.96 | 5.83 | 5.92 | 5.81 | 5.91 | 5.85 | 5.66 | 200
O=C1C2(Cl)C3(Cl)C4(Cl)C(Cl)(Cl)C5(Cl)C3(Cl)C1(Cl)C5(Cl)C24Cl (configuration not stated) [Kepone (Chlordecone)] | 3.31 | 5.67 | 5.53 | 4.74 | 4.04 | 3.69 | 3.63 | 4.06 | 1
CC[C@H](C)[C@H]1O[C@]2(C=C[C@@H]1C)C[C@@H]1C[C@@H](C/C=C(\C)[C@@H](O[C@H]3C[C@H](OC)[C@@H](O[C@H]4C[C@H](OC)[C@@H](O)[C@H](C)O4)[C@H](C)O3)[C@@H](C)/C=C/C=C3\CO[C@@H]4[C@H](O)C(C)=C[C@@H](C(=O)O1)[C@]34O)O2.CO[C@H]1C[C@H](O[C@H]2[C@H](C)O[C@@H](O[C@@H]3/C(C)=C/C[C@@H]4C[C@@H](C[C@]5(C=C[C@H](C)[C@@H](C(C)C)O5)O4)OC(=O)[C@@H]4C=C(C)[C@@H](O)[C@H]5OC/C(=C\C=C\[C@@H]3C)[C@]54O)C[C@@H]2OC)O[C@@H](C)[C@@H]1O [Abamectin] | < 0.5 | 3.68 | 3.31 | 3.37 | 3.26 | 3.38 | 3.35 | 3.24 | ≤ 0.5
N#CSCSC#N [Methylene bis(thiocyanate)] | 17.5 | 5.41 | 5.47 | 5.22 | 5.16 | 3.74 | 3.85 | 3.4 | ≤ 0.5
C[C@]12CCC(=O)C=C1CC[C@@H]1[C@@H]2CC[C@]2(C)C(=O)CC[C@@H]12 [Androstenedione] | > 200 | 5.85 | 5.91 | 5.86 | 5.99 | 5.89 | 5.84 | 5.66 | 200
Nc1ccccc1N [1,2-Phenylenediamine] | > 200 | 5.84 | 5.95 | 5.92 | 5.74 | 5.66 | 5.46 | 5.19 | 50
CCCCCCCCCCCCCCCO [1-Pentadecanol] | > 200 | 5.76 | 5.96 | 5.83 | 5.8 | 5.59 | 5.49 | 5.3 | 50
Nc1ccc2c(c1)C(=O)c1ccccc1C2=O [2-Aminoanthraquinone] | 53.9 | 6.17 | 5.82 | 5.77 | 5.81 | 5.75 | 4.42 | 5.14 | 100
CCCCCCCCCCCCCN1CC(C)OC(C)C1 (configuration not stated) [Tridemorph] | 174 | 5.89 | 5.94 | 5.84 | 5.85 | 5.73 | 5.49 | 4.26 | 100
CC(C)(C)OOC(C)(C)C [Di-tert-butyl peroxide] | > 200 | 5.88 | 5.88 | 5.96 | 5.83 | 5.59 | 5.79 | 5.31 | 200
CC/C(=N\OC/C=C/Cl)C1=C(O)CC(C2CCOCC2)CC1=O (configuration not stated) [Tepraloxydim] | > 200 | 5.72 | 5.89 | 5.74 | 5.83 | 5.77 | 5.86 | 5.43 | 200
Fc1ccccc1[C@@H](F)CO[C@H]1CC[C@H](Nc2[nH]cnc3nncc2-3)CC1 | > 200 | 5.89 | 5.84 | 5.82 | 5.68 | 5.67 | 5.25 | 5.4 | 100
Oc1cc2ccccc2c2ccccc12 [9-Phenanthrol] | 119 | 5.85 | 5.85 | 5.84 | 5.72 | 5.41 | 4.71 | 4.03 | 50
Cc1cc(C)nc(Nc2ccccc2)n1 [Pyrimethanil] | 184 | 6 | 5.86 | 5.84 | 5.84 | 5.68 | 6.12 | 5.4 | 200
CC(C)c1nnc2ccc(-c3ocnc3-c3cc(F)ccc3F)cn12 | > 200 | 5.79 | 5.88 | 5.84 | 5.82 | 5.82 | 5.79 | 5.53 | 200
